Reference: article PMC5856786, “A DHODH inhibitor increases p53 synthesis and enhances tumor cell killing by p53 degradation blockage” (Nature Communications, 2018)
Blank lines part the entries; values can stand above or below the molecule they belong to.

Legend:
p53-null H1299 cells = assay: p53 reporter (CPRG assay) in p53-null H1299 cells transfected with RGCΔFosLacZ; type: cell-based; details: H1299, 16 h exposure
Procedure: Supplementary Figure 1. HZ compounds increase the levels of p53-induced mRNAs. a) p53-null H1299 cells were transfected with the RGCΔ FosLacZ reporter construct and levels of p53-dependent transcription were determined by CPRG assay following a 16 h exposure to HZ00. A vector expressing wild-type p53 was used as a positive control. The average of three […]
for 1 hour prior to treatment with 2 µM nutlin-3 for an additional 18 hours. Levels of p53-induced mRNAs and p53 mRNA were determined by q-RT-PCR. tbp was used as a control.
Values correspond to the average of three technical repeats with standard deviation used for error. RNA extraction and q-RT-PCR were performed as previously described - see supplementary information7. c) HCT116 p53 wild-type or p53 deficient cells were treated […]
supplementary information for cell line description8. d) ARN8 cells treated for 6 hours with HZ00 at indicated doses. Levels of p53 mRNA were determined by q-RT-PCR. […]

ARN8 cells [1] = assay: PI flow cytometry, sub-G1 cells, ARN8; type: cell-based, human; details: for DMSO control subtracted effect (cells in sub-G1) / sub-G1 cells: ARN8 72 h
Procedure: (§1) Cell cycle distribution analysis was performed on a Becton Dickinson FACScan flow cytometer or FACSCalibur (BD Biosciences) following staining with propidium iodide (PI) or dual labeling with BrdU and PI[36]. These assays were analyzed using CellQuest Pro (BD Biosciences).

ARN8 cells [2] = assay: BrdU/PI flow cytometry, cell cycle distribution; type: cell-based, human
Procedure: as §1

ARN8 cells [3] = assay: SRB growth/viability assay, ARN8; type: cell-based, human; details: for effect on cell growth and p53 activation in presence of excess uridine: uridine 100 μM
Procedure: SRB assays measuring protein content were performed in 96-well plates as previously described.

human mdmx (hdmx) = target: T1, human mdmx (hdmx) (Homo sapiens, UniProt O15151); assay: hdmx binding (CETSA in ARN8 extracts; ELISA with IP3 peptide); details: CETSA at 100 μM
T1 construct: ARN8 soluble cell extracts were prepared for the cellular thermal shift assay (CETSA); endogenous in cells; host or cells: ARN8 human melanoma cells (soluble extract)
T1 sequence (O15151 whole entry): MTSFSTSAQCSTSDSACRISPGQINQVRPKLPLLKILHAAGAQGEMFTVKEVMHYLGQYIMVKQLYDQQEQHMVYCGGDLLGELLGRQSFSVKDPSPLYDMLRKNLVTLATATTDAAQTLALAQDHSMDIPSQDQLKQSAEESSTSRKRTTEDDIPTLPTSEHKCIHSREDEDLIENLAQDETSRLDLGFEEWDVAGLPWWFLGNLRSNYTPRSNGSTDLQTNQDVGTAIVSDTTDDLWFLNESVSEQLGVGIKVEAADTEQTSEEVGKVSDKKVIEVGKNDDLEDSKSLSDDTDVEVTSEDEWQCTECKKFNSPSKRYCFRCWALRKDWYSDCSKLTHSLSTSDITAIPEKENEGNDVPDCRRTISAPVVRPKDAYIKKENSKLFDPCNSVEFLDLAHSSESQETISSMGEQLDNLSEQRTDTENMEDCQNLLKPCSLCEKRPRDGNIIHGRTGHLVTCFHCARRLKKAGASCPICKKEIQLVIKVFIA
Procedure: Levels of gapdh were used to monitor protein loading. e ARN8 or HNDF cells were treated with the indicated compound concentrations for 72 h and subjected to MTT assays. […] Incorporation of ^35S in the p53 immunoprecipitate was determined by autoradiography. The experiment is shown in duplicate
corresponds to residues 17−26 of wild-type p53) was determined by ELISA (See
supplementary information9). The percentage hdm2/hdmx bound to IP3 relative to the vehicle
upon which cycloheximide (CHX) (10 µg mL-1) was added for the indicated periods of time. […]

p53 in ARN8 cells = assay: p53 synthesis assay (35S-Met-Cys pulse labeling, p53 immunoprecipitation); type: cell-based, human; details: 20 μM, within 6 h of treatment
Procedure: ARN8 cells were seeded at 2.5 × 10^6 cells per 10 cm dish. […] After 5.5 h, medium was substituted for Met- and Cys-deprived DMEM, supplemented with 5 μM nutlin-3, 0.5% FBS and 4 mM L-glutamine for 20 min in the presence of the corresponding compounds. ^35S-Met-Cys (50 μCi mL^−1) was added for 30 min. […] Samples were centrifuged at 16,000×g for 15 min at 4 °C. Volume of 30 µL of each supernatant was stored as input. The remaining supernatants were incubated with 5 µg anti-p53 DO-1 antibody and rotated overnight at 4 °C. Samples were transferred to Dynabeads Protein G (# D10004D, Life Technologies) and rotated for 30 min at RT. Samples were centrifuged briefly for 10 s and placed in front of a magnet. […] Pellets were resuspended in 3× LDS containing 100 mM DTT. Samples were separated by SDS-PAGE and the gels were incubated in enhancer solution (#6NE9741, PerkinElmer), dried and exposed to Carestream Kodak BioMax MR films at −80 °C.

[4] = system: P-chk1 (Ser 345)/chk1 in ARN8 cells; assay: P-chk1/chk1 ratio by western blotting, ARN8; type: cell-based, human; details: first blot (taken as ARN8)
Description: (§2) (Ser 345) and chk1 were detected. Ponceau S staining was used to monitor loading. […]

[5] = system: P-chk1 (Ser 345)/chk1 in HNDF cells; assay: P-chk1/chk1 ratio by western blotting, HNDF; type: cell-based, human; details: second blot (taken as HNDF)
Procedure: (Sigma, #N9162) for a further 2 h. […]
as §2

RNA levels in ARN8 cells = assay: RNASeq differential expression and gene ontology analysis; type: cell-based, human; details: ARN8, 5 h
Description: Libraries were generated using the NEBNext Ultra Directional RNA Library Prep Kit for Illumina (New England Biolabs). Data are deposited at GEO with the accession code: GSE87577. […] Differential expression and gene ontology analysis are in Supplementary Data 1. Values correspond to the average of three biological repeats.

ARN8 cells [6] = assay: Giemsa staining of ARN8 cultures (uridine, orotic acid, dihydroorotic acid supplementation); type: cell-based, human; details: 72 h, 2.5 or 5 μM uridine, serum replacement medium
Procedure: Additionally, ARN8 cells were treated for 16 h and p53-dependent transcription was measured by CPRG assay. Values correspond to the average of three technical repeats ± SD. c Simplified description of the pyrimidine nucleotide de novo (blue) and salvage (black) pathways. d ARN8 cells were seeded in FBS supplemented DMEM with a change to serum replacement medium 24 h post seeding. […] Values correspond to the average of three technical repeats ± SD. f ARN8 cells were seeded in FBS supplemented DMEM with a change to serum replacement medium 24 h post seeding.

binding to human mdmx (hdmx) (human mdmx (hdmx)): not detected
Compound: O=C(NC1CCCc2c1cnn2-c1ccccc1F)c1ccccn1 (stereo not drawn) [HZ00]
p53-reporter activity in p53-null cells (p53-null H1299 cells): did not result in p53-reporter activity
synergy with nutlin-3 (cell kill) (ARN8 cells [1]; ARN8 in vitro, 72 h, additivity and Bliss independence models): synergistic cell kill
accumulation of cells in S-phase (ARN8 cells [2]): accumulates ARN8 cells in S-phase
effect on cell growth and p53 activation in presence of excess uridine (ARN8 cells [3]; ARN8): completely abolished
p53 synthesis (p53 in ARN8 cells): increase p53 synthesis
P-chk1/chk1 ([4]; HZ00 10 µM, 24 h): 1.02
P-chk1/chk1 ([4]; HZ00 10 µM, 48 h): 1.28
P-chk1/chk1 ([4]; HZ00 10 µM, 72 h): 0.78
P-chk1/chk1 ([4]; HZ00 20 µM, 24 h): 0.94
P-chk1/chk1 ([4]; HZ00 20 µM, 48 h): 1.41
P-chk1/chk1 ([4]; HZ00 20 µM, 72 h): 0.87
P-chk1/chk1 ([5]; HZ00 10 µM, 24 h): 0.98
P-chk1/chk1 ([5]; HZ00 10 µM, 48 h): 0.89
P-chk1/chk1 ([5]; HZ00 10 µM, 72 h): 1.13
P-chk1/chk1 ([5]; HZ00 20 µM, 24 h): 1.08
P-chk1/chk1 ([5]; HZ00 20 µM, 48 h): 1.05
P-chk1/chk1 ([5]; HZ00 20 µM, 72 h): 1.07
log2FoldChange, drug vs DMSO, gene ENSG00000166436 (RNA levels in ARN8 cells; sheet Drug HZ00vsDMSO (20 μM)): -1.5997
log2FoldChange, drug vs DMSO, gene ENSG00000197153 (RNA levels in ARN8 cells; sheet Drug HZ00vsDMSO (20 μM)): -1.477
log2FoldChange, drug vs DMSO, gene ENSG00000204569 (RNA levels in ARN8 cells; sheet Drug HZ00vsDMSO (20 μM)): -2.244
log2FoldChange, drug vs DMSO, gene ENSG00000221926 (RNA levels in ARN8 cells; sheet Drug HZ00vsDMSO (20 μM)): -1.707
log2FoldChange, drug vs DMSO, gene ENSG00000277224 (RNA levels in ARN8 cells; sheet Drug HZ00vsDMSO (20 μM)): -1.408

Compound: O=C(NC1CCCc2c1cnn2-c1ccccc1F)c1onc2c1CCCC2 (stereo not drawn) [HZ05]
DMSO control subtracted effect (cells in sub-G1) (ARN8 cells [1]; HZ05 250 nM + nutlin-3a 0 µM): 0.06
DMSO control subtracted effect (cells in sub-G1) (ARN8 cells [1]; HZ05 250 nM + nutlin-3a 5 µM): 0.27
DMSO control subtracted effect (cells in sub-G1) (ARN8 cells [1]; HZ05 250 nM + nutlin-3a 10 µM): 0.48
DMSO control subtracted effect (cells in sub-G1) (ARN8 cells [1]; HZ05 250 nM + nutlin-3a 15 µM): 0.69
DMSO control subtracted effect (cells in sub-G1) (ARN8 cells [1]; HZ05 250 nM + nutlin-3a […]): 0.61
sub-G1 cells (ARN8 cells [1]; HZ05 400 nM (Fig. 6c)): 16.61%
sub-G1 cells (ARN8 cells [1]; HZ05 400 nM + nutlin-3a 1 μM): 36.73%
sub-G1 cells (ARN8 cells [1]; HZ05 400 nM + nutlin-3a 2.5 μM): 46.63%
sub-G1 cells (ARN8 cells [1]; HZ05 400 nM + nutlin-3a 5 μM): 54.06%
DMSO control subtracted effect (cells in sub-G1) (ARN8 cells [1]; HZ05 500 nM + nutlin-3a 0 µM): 0.08
DMSO control subtracted effect (cells in sub-G1) (ARN8 cells [1]; HZ05 500 nM + nutlin-3a 5 µM): 0.35
DMSO control subtracted effect (cells in sub-G1) (ARN8 cells [1]; HZ05 500 nM + nutlin-3a 10 µM): 0.60
DMSO control subtracted effect (cells in sub-G1) (ARN8 cells [1]; HZ05 500 nM + nutlin-3a 15 µM): 0.67
DMSO control subtracted effect (cells in sub-G1) (ARN8 cells [1]; HZ05 500 nM + nutlin-3a […]): 0.58
sub-G1 cells (ARN8 cells [1]; HZ05 1 μM (Fig. 6b)): 31.06%
DMSO control subtracted effect (cells in sub-G1) (ARN8 cells [1]; HZ05 1000 nM + nutlin-3a 10 µM): 0.56
DMSO control subtracted effect (cells in sub-G1) (ARN8 cells [1]; HZ05 1000 nM + nutlin-3a 15 µM): 0.71
DMSO control subtracted effect (cells in sub-G1) (ARN8 cells [1]; HZ05 1000 nM + nutlin-3a […]): 0.62
sub-G1 cells (ARN8 cells [1]; HZ05 2.5 μM (Fig. 6b)): 35.04%
DMSO control subtracted effect (cells in sub-G1) (ARN8 cells [1]; HZ05 […] + nutlin-3a 0 µM): 0.03
DMSO control subtracted effect (cells in sub-G1) (ARN8 cells [1]; HZ05 […] + nutlin-3a 5 µM): 0.19
DMSO control subtracted effect (cells in sub-G1) (ARN8 cells [1]; HZ05 […] + nutlin-3a 10 µM): 0.39
DMSO control subtracted effect (cells in sub-G1) (ARN8 cells [1]; HZ05 […] + nutlin-3a 15 µM): 0.63
synergy with nutlin-3a (cell kill) (ARN8 cells [1]; ARN8 in vitro, 72 h): strong synergistic cell kill
accumulation of cells in S-phase (ARN8 cells [2]): accumulation of ARN8 cells in S-phase
effect of serum albumin concentration on activity (ARN8 cells [3]; ARN8, 72 h, increasing BSA): affected to a lesser degree than brequinar
effect on cell growth and p53 activation in presence of excess uridine (ARN8 cells [3]; ARN8): prevented by addition of excess uridine
concentration reducing cell viability or growth (ARN8 cells [3]; cultured cells, authors' response in peer review file): ~160 nM
tumor cell growth at physiological uridine levels (ARN8 cells [6]): able to ablate tumor cell growth
log2FoldChange, drug vs DMSO, gene ENSG00000121101 (RNA levels in ARN8 cells; sheet Drug HZ05vsDMSO (5 μM)): -2.498
log2FoldChange, drug vs DMSO, gene ENSG00000197153 (RNA levels in ARN8 cells; sheet Drug HZ05vsDMSO (5 μM)): -1.694
log2FoldChange, drug vs DMSO, gene ENSG00000204569 (RNA levels in ARN8 cells; sheet Drug HZ05vsDMSO (5 μM)): -2.424
log2FoldChange, drug vs DMSO, gene ENSG00000221926 (RNA levels in ARN8 cells; sheet Drug HZ05vsDMSO (5 μM)): -1.667
log2FoldChange, drug vs DMSO, gene ENSG00000276410 (RNA levels in ARN8 cells; sheet Drug HZ05vsDMSO (5 μM)): -1.7121
